Test results taken from US20260028336A1 (Arcus Biosciences, Inc., priority 2022, published 2026).

Experiments:
Jurkat cells = assay: IL-2 secretion assay in CD3/CD28-activated Jurkat cells (AlphaLISA); assay type: cell-based; conditions: Homo sapiens, CD3/CD28 T Cell Activator, 24 h, IL-2 AlphaLISA
Protocol: Certain compounds were also evaluated in an IL-2 secretion assay. On the day of the assay, a 16 point, 1:2 master serial dilution of each compound was prepared in Opti-MEM to span a final concentration range of 10 μM to 300 pM. Assays were set up in CORNING® tissue culture-treated 384-well microplates containing 60 nL of each dilution. […] 50,000 cells/well and added to the compound plates. After a short spin (1200 rpm for 1 min), the plates were incubated at 37° C. for 1 hour. The cells were activated by adding 15 μL of IMMUNOCULT™ Human CD3/CD28 T Cell Activator ([…] Technologies) diluted in Opti-MEM. […] The AiphaLISA signal was measured using an EnVision plate reader (PerkinElmer). EC50 values were determined by fitting the data to a standard 4-parameter logistic equation.

Cbl-b = target: T1, Cbl-b (Homo sapiens, UniProt Q13191); assay: Cbl-b probe displacement HTRF binding assay; conditions: 0.4 nM biotinylated Cbl-b, 150 nM BODIPY probe
T1 construct: biotin (biotinylated)
Protocol: The affinity with which compounds of the present dislcosure bind to Cbl-b was assessed using probe displacement homologous time resolved fluorescence (HTRF) assays. […] The assays were performed in assay buffer consisting of 20 mM Hepes, 150 mM NaCl, 0.01% Triton X-100, 0.5 mM TCEP, 0.01% BSA. On the day of the assay, a 20 point, 1:2 master serial dilution of each compound was prepared in DMSO to span a final concentration range of […] to 0 nM. Two hundred nanoliters of diluted compound was added to each well of a 384-well plate. Fifteen microliters of biotinylated-Cbl-b resuspended in assay buffer were added to each well and the plate incubated for 60 minutes at room temperature prior to addition of 5 μL of BODIPY™ probe in assay buffer. […] After a further 15 minutes of incubation at room temperature, 5 μl of Streptavidin-Terbium cryptate reagent at 5-fold final concentration was added to each well of the 384-well plate. Binding of a probe to Cbl-b results in an increase of HTRF signal. […] Percentage maximum activity in each test well was calculated based on DMSO (maximum activity, 0% displacement) and no protein control wells (baseline activity, 100% displacement). Binding affinity was determined from a dose response curve fitted using a standard four parameter fit equation.

T1 sequence (Q13191 whole entry, species assumed): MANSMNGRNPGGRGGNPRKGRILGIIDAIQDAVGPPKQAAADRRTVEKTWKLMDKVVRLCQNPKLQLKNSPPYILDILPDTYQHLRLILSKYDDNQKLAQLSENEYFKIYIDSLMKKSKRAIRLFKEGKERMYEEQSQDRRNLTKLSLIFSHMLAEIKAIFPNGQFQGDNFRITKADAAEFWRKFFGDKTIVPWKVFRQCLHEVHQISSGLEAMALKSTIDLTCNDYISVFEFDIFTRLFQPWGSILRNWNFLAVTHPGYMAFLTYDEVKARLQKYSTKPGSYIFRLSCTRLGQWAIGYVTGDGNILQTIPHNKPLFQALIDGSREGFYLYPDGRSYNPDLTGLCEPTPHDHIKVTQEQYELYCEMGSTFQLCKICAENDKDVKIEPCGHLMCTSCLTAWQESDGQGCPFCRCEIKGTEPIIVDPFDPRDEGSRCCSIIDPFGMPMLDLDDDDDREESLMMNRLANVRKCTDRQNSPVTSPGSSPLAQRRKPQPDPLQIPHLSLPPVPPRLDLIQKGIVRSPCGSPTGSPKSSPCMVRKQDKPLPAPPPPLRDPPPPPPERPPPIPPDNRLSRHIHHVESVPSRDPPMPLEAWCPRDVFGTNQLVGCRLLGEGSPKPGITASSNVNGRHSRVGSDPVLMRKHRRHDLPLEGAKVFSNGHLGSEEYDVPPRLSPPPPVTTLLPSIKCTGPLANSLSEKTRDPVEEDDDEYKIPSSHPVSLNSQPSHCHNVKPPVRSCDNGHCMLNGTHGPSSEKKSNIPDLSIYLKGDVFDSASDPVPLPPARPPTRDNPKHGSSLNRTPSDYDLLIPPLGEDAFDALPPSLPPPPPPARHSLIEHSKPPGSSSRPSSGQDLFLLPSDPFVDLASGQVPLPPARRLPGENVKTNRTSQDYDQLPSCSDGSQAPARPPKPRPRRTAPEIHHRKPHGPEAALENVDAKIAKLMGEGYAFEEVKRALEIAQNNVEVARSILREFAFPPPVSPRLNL

Row | SMILES | EC50 (Jurkat cells) [nM] | IC50 (Cbl-b) [nM]
1 | CC1CC(c2cccc(-n3cc(C4CC4)c4cc(CN5CCO[C@H](C)C5)[nH]c4c3=O)c2)(c2nncn2C)C1 (stereo partly drawn) [Example 45, 4-cyclopropyl-6-{3-[3-methyl-1-(4-methyl-4H-1,2,4-triazol-3-yl)cyclobutyl]phenyl}-2-{[(2R)-2-methylmorpholin-4-yl]methyl}-1H,6H,7H-pyrrolo[2,3-c]pyridin-7-one] | < 100 | < 100
2 | C[C@H]1CCCN(Cc2cc3ncn(-c4cccc([C@]5(c6nncn6C(F)F)C[C@H](F)C5)c4)c(=O)c3[nH]2)C1 [Example 149, 2—{[(S)-3-methyl-1-piperidyl]methyl}-6-(m-{(1r,3S)-1-[4-(difluoromethyl)-4H-1,2,4-triazol-3-yl]-3-fluorocyclobutyl}phenyl)-1,6-dihydro-1,4,6-triaza-7-indenone] | < 100 | < 100
3 | C[C@H]1CCCN(Cc2nc3c(C4CC4)cn(-c4cccc(C5(c6nncn6C)CC6(CC6)C5)c4)c(=O)c3[nH]2)C1 [Example 111, 7-cyclopropyl-2-[[(3S)-3-methylpiperidin-1-yl]methyl]-5-[3-[5-(4-methyl-1,2,4-triazol-3-yl)spiro[2.3]hexan-5-yl]phenyl]-3H-imidazo[4,5-c]pyridin-4-one] | < 100 | < 100
4 | CO[C@H]1C[C@](c2cccc(-n3cc(C4CC4)c4cc(CN5CCC[C@H](C)C5)[nH]c4c3=O)c2)(c2nncn2C)C1 [Example 101, trans-4-cyclopropyl-6-[3-[3-methoxy-1-(4-methyl-1,2,4-triazol-3-yl)cyclobutyl]phenyl]-2-[[(3S)-3-methylpiperidin-1-yl]methyl]-1H-pyrrolo[2,3-c]pyridin-7-one] | < 100 | < 100
5 | CC1CC(c2cccc(-n3cc(C4CC4)c4cc(CN5CC(F)(F)C5)[nH]c4c3=O)c2)(c2nncn2C)C1 (centres unmarked) [Example 58, 4-cyclopropyl-2-[(3,3-difluoroazetidin-1-yl)methyl]-6-{3-[3-methyl-1-(4-methyl-4H-1,2,4-triazol-3-yl)cyclobutyl]phenyl}-1H,6H,7H-pyrrolo[2,3-c]pyridin-7-one] | 100 to 1000 | < 100
6 | C[C@@H]1CN(Cc2cc3c(C4CC4)cn(-c4cccc(C5(c6nncn6C)CC6(CC6)C5)c4)c(=O)c3[nH]2)CCO1 [Example 71, 4-cyclopropyl-2-[[(2R)-2-methylmorpholin-4-yl]methyl]-6-[3-[5-(4-methyl-1,2,4-triazol-3-yl)spiro[2.3]hexan-5-yl]phenyl]-1H-pyrrolo[2,3-c]pyridin-7-one] | 100 to 1000 | < 100
7 | Cn1cnnc1C1(c2cccc(-n3cc(C4CC4)c4cc(CN[C@H]5COC[C@@H]5O)[nH]c4c3=O)c2)CC(F)(F)C1 [Example 92] | > 5000 | 100 to 1000
8 | CC1CC(c2cccc(-n3cc(C4CC4)c4cc(CN5C[C@H]6C[C@@H]5CO6)[nH]c4c3=O)c2)(c2nncn2C)C1 (stereo partly drawn) [Example 51, 4-cyclopropyl-6-{3-[3-methyl-1-(4-methyl-4H-1,2,4-triazol-3-yl)cyclobutyl]phenyl}-2-{[(1R,4R)-2-oxa-5-azabicyclo[2.2.1]heptan-5-yl]methyl}-1H,6H,7H-pyrrolo[2,3-c]pyridin-7-one] | 100 to 1000 | < 100
9 | C[C@H]1CCCN(Cc2cc3c(C4CC4)cn(-c4cccc([C@]5(c6nncn6C)C[C@@H](C)C5)c4)c(=O)c3[nH]2)C1 [Example 3, 4-cyclopropyl-6-[3-[3-methyl-1-(4-methyl-1,2,4-triazol-3-yl)cyclobutyl]phenyl]-2-[[(3S)-3-methylpiperidin-1-yl]methyl]-1H-pyrrolo[2,3-c]pyridin-7-one] | < 100 | –
10 | C[C@H]1CCCN(Cc2cc3c(C4CC4)cn(-c4cccc(C5(Cn6nccn6)CC(F)(F)C5)c4)c(=O)c3[nH]2)C1 [Example 122, 4-cyclopropyl-6-[3-[3,3-difluoro-1-(triazol-2-ylmethyl)cyclobutyl]phenyl]-2-[[(3S)-3-methylpiperidin-1-yl]methyl]-1H-pyrrolo[2,3-c]pyridin-7-one] | 100 to 1000 | 100 to 1000
11 | Cn1cnnc1C1(c2cccc(-n3cc(C(F)(F)F)c4c(C#N)c[nH]c4c3=O)c2)CC2(CC2)C1 [Example 137, 6-{3-[5-(4-Methyl-4H-1,2,4-triazol-3-yl)spiro[2.3]hexan-5-yl]phenyl}-7-oxo-4-(trifluoromethyl)-1H,6H,7H-pyrrolo[2,3-c]pyridine-3-carbonitrile] | 1000 to 5000 | < 100
12 | CC1CC(c2cccc(-n3cc(C4CC4)c4cc(CN5CCN(C)C[C@@H]5C(C)C)[nH]c4c3=O)c2)(c2nncn2C)C1 (stereo partly drawn) [Example 68, 4-cyclopropyl-2-{[(2S)-4-methyl-2-(propan-2-yl)piperazin-1-yl]methyl}-6-{3-[(1r,3s)-3-methyl-1-(4-methyl-4H-1,2,4-triazol-3-yl)cyclobutyl]phenyl}-1H,6H,7H-pyrrolo[2,3-c]pyridin-7-one] | 100 to 1000 | < 100
13 | C[C@H]1CCCN(Cc2cc3c(C(F)(F)F)cn(-c4cccc(C5(c6nncn6C)CC6(CC6)C5)c4)c(=O)c3[nH]2)C1 [Example 105] | < 100 | < 100
14 | C[C@H]1CCCN(Cc2cc3c(C4CC4)cn(-c4cccc(C5(c6nnco6)CC(F)(F)C5)c4)c(=O)c3[nH]2)C1 [Example 121, 4-cyclopropyl-6-[3-[3,3-difluoro-1-(1,3,4-oxadiazol-2-yl)cyclobutyl]phenyl]-2-[[(3S)-3-methylpiperidin-1-yl]methyl]-1H-pyrrolo[2,3-c]pyridin-7-one] | 100 to 1000 | 100 to 1000
15 | Cn1cnnc1[C@]1(c2cccc(-n3cc(C4CC4)c4nc[nH]c4c3=O)c2)C[C@@H](C)C1 (single isomer, unassigned) [Example 12, 7-cyclopropyl-5-{3-[(1s,3r)-3-methyl-1-(4-methyl-4H-1,2,4-triazol-3-yl)cyclobutyl]phenyl}-3H,4H,5H-imidazo[4,5-c]pyridin-4-one] | 1000 to 5000 | 100 to 1000
16 | C[C@H]1CCCN(Cc2cc3c(C4CC4)cn(-c4cccc([C@]5(c6nncn6C)C[C@H](O)C5)c4)c(=O)c3[nH]2)C1 [Example 99, trans-4-cyclopropyl-6-[3-[3-hydroxy-1-(4-methyl-1,2,4-triazol-3-yl)cyclobutyl]phenyl]-2-[[(3S)-3-methylpiperidin-1-yl]methyl]-1H-pyrrolo[2,3-c]pyridin-7-one] | 1000 to 5000 | –
17 | COC(c1cccc(-n2cc(C3CC3)c3cc(CN4CCC[C@H](C)C4)[nH]c3c2=O)c1)c1nncn1C (some centres unmarked) [Example 158] | 100 to 1000 | < 100
18 | C[C@H]1CCCN(Cc2cc3c(S(C)(=O)=O)cn(-c4cccc([C@]5(c6nncn6C)C[C@@H](C)C5)c4)c(=O)c3[nH]2)C1 (single isomer, unassigned) [Example 107] | < 100 | < 100
19 | CC1CC(c2cccc(-n3cc(C4CC4)c4c(S(C)(=O)=O)c(CN5CCC[C@H](C)C5)[nH]c4c3=O)c2)(c2nncn2C)C1 (mixture of isomers) [Example 135, 4-Cyclopropyl-3-methanesulfonyl-2-{[(3S)-3-methylpiperidin-1-yl]methyl}-6-{3-[(1R,3S)-3-methyl-1-(4-methyl-4H-1,2,4-triazol-3-yl)cyclobutyl]phenyl}-1H,6H,7H-pyrrolo[2,3-c]pyridin-7-one] | < 100 | < 100
20 | Cn1nccc1-c1c[nH]c2c(=O)n(-c3cccc([C@]4(c5nncn5C)C[C@@H](C)C4)c3)cc(C3CC3)c12 [Example 132, 4-Cyclopropyl-3-(1-methyl-1H-pyrazol-5-yl)-6-{3-[(1R,3S)-3-methyl-1-(4-methyl-4H-1,2,4-triazol-3-yl)cyclobutyl]phenyl}-1H,6H,7H-pyrrolo[2,3-c]pyridin-7-one] | 1000 to 5000 | < 100
21 | Cc1nnc(C2(c3cccc(-n4cc(C5CC5)c5cc(CN6CCC[C@H](C)C6)[nH]c5c4=O)c3)CC(F)(F)C2)n1C [Example 125, 4-cyclopropyl-6-[3-[1-(4,5-dimethyl-1,2,4-triazol-3-yl)-3,3-difluorocyclobutyl]phenyl]-2-[[(3S)-3-methylpiperidin-1-yl]methyl]-1H-pyrrolo[2,3-c]pyridin-7-one] | 1000 to 5000 | 1000 to 5000
22 | Cn1cnnc1C1(c2cccc(-n3cc(C4CC4)c4cc(CNC5CCC(F)(F)C5)[nH]c4c3=O)c2)CC(F)(F)C1 (centres unmarked) [Example 80, 4-cyclopropyl-6-{3-[3,3-difluoro-1-(4-methyl-4H-1,2,4-triazol-3-yl)cyclobutyl]phenyl}-2-{[(3,3-difluorocyclopentyl)amino]methyl}-1H,6H,7H-pyrrolo[2,3-c]pyridin-7-one] | – | < 100
